In brackets after ≈: the same amount, converted by molar mass. Where two headings read alike, the source gives them in different places.
How the values were obtained:
[1] = molecular target: Nav1.8 ion channel stably expressed on HEK293 cells (Homo sapiens (Human), UniProt Q9Y5Y9); test: Inhibitory activity against Nav1.8, manual patch clamp; type: cell-based; conditions: resting protocol (-80 mV to 10 mV), 1 μM TTX, read-out: IC50 for the inhibition of Nav1.8 channel activity
Source text: The objective of the experiment was to investigate the effects of the compounds on the Nav1.8 ion channel in ex vivo experiments. The Nav1.8 ion channel is stably expressed on HEK293 cells. After the Nav1.8 current stabilized, the effects of the compounds on the Nav1.8 ion channel were obtained by comparing the magnitudes of the Nav1.8 currents before and after the compounds were applied.
• 1) A patch clamp amplifier: patch clamp PC-505B (WARNER instruments)/MultiClamp 700A (Axon instrument) • 2) A digital-to-analog converter: Digidata 1440A (Axon CNS)/Digidata 1550A (Axon instruments) • 3) A micromanipulator: MP-225 (SUTTER instrument) • 4) An inverted microscope: TL4 (Olympus) • 5) Glass micropipette puller: PC-10 (NARISHIGE) • 6) Microelectrode glass capillaries: B12024F (Wuhan VitalSense Scientific Instruments Co., Ltd.) • 7) Dimethyl sulfoxide (DMSO) D2650 (Sigma-Aldrich) • 8) TTX AF3014 (Affix Scientific)
The compounds for preparing the intracellular and extracellular fluids were purchased from Sigma (St. Louis, MO) except for the NaOH and KOH for the acid-base titrations. The extracellular fluid (mM) was: NaCl, 137; KCl, 4; CaCl2, 1.8; MgCl2, 1; HEPES, 10; glucose, 10; pH 7.4 (NaOH titration). The intracellular fluid (mM) was: aspartic acid, 140; MgCl2, 2; EGTA, 11; HEPES, 10; pH 7.2 (CsOH titration). All test and control compound solutions contained 1 μM TTX.
The test compounds were stored at a concentration of 9 mM in dimethyl sulfoxide (DMSO). On the testing day, the compounds were further dissolved in the extracellular fluid to prepare the required concentrations.
1) After the compounds were prepared into solutions with specified concentrations, the compound solutions were sequentially added to channels in ascending order according to their concentrations, and each channel was labeled.
2) A cell was transferred to the perfusion chamber. Positive pressure was applied inside the electrode, and the electrode tip was brought into contact with the cell. The three-way valve of the suction device was switched to the state where all three ways were open, and negative pressure was then applied to the electrode, allowing a high-resistance seal to form between the electrode and the cell. The application of negative pressure was continued to rupture the cell membrane, leading to the formation of a current pathway.
3) After the cell membrane rupture current stabilized, perfusion was performed with different concentrations in sequence. If the current remained stable for at least one minute, perfusion was performed with the next concentration.
4) The perfusion chamber was cleaned. The perfusion chamber was rinsed with the compound solutions in descending order according to their concentrations, with each concentration applied for 20 s. Finally, the perfusion chamber was rinsed with the extracellular fluid for 1 min.
The cell was clamped at −80 mV and then depolarized to 10 mV using a square wave lasting for 10 ms to obtain a Nav1.8 current. This procedure was repeated once every 5 seconds. The maximum current induced by the square wave was detected. After the current stabilized, perfusion was performed with the test compounds. After the reaction stabilized, the strength of the blocking was calculated.
The data were stored on a computer system and analyzed. Data acquisition and analysis were performed using pCLAMP 10 (Molecular Devices, Union City, CA), and the results were reviewed by a manager. “Current stabilized” means that the changes in current over time were within a limited range. The magnitude of the current after stabilization was used to calculate the effect of the compound at this […].
The inhibitory activity of the compounds of the present disclosure against Nav1.8 was determined through the above assay.

[2] = Solubility in FassIF and FessIF solutions; type: physicochemical; conditions: thermodynamic from solid, 37° C.
Source text: Reagents: dimethyl sulfoxide (chromatographically pure, Sigma-Aldrich, Cat. No. 472301-4X4L), ethanol (chromatographically pure, CNW, Cat. No. 4.016362.4000), acetonitrile (chromatographically pure, FISHER, Cat. No. A998-4), NaH2PO4·2H2O (analytically pure, Sinopharm Chemical Reagent Co., Ltd., Cat. No. 20040717), ammonium acetate (chromatographically pure, ALADDIN, Cat. No. 17836-250G), FaSSIF/FeSSIF/FaSSGF powder (Biorelevant, Cat. No. FFF02), FaSSIF buffer concentrate (Biorelevant, Cat. No. FASBUF), FeSSIF buffer concentrate (Biorelevant, Cat. No. FESBUF), and ultrapure water (made in-house using an ELGA CHORUS laboratory water purification system).
Instrument: Agilent 1200 DAD liquid chromatograph (Agilent, U.S.)
FaSSIF solution: 2.0825 g of FaSSIF medium solution and 48.055 g of ultrapure water were weighed into a 50-mL beaker, and 0.112 g of FaSSIF/FeSSIF/FaSSGF powder was then added to the beaker. The mixture was stirred to dissolve the powder, and the solution was then equilibrated by standing for 2 h before use (the solution should be used within 48 h). […]
3.1. […] 10 μL of the stock solution (concentration 10 mM, dissolved in DMSO) was precisely measured out and well mixed with 990 μL of an organic solvent mixture (usually DMSO:acetonitrile:ethanol=1:1:1) in a 2-mL sample flask to form a 100 μM clear sample solution. […]

## COc1c([C@H]2[C@H](C(=O)Nc3ccnc(C(=N)N)c3)O[C@@](C)(C(F)(F)F)[C@H]2C)ccc(F)c1F [Example 20, (2R,3S,4S,5R)—N-(2-Carbamimidoylpyridin-4-yl)-3-(3,4-difluoro-2-methoxyphenyl)-4,5-dimethyl-5-(trifluoromethyl)tetrahydrofuran-2-carboxamide]
[1]
  IC50: 240 pM
[2]; FassIF solution, read-out: Solubility in FassIF solution
  solubility at 24 h: 308 µM (≈ 145 µg/mL)
[2]; FessIF solution, read-out: Solubility in FessIF solution
  solubility at 24 h: 2410 µM (≈ 1140 µg/mL)

From patent US20260055088A1, “HETEROCYCLIC COMPOUND, METHOD FOR PREPARING SAME, AND PHARMACEUTICAL USE THEREOF” (Jiangsu Hengrui Pharmaceuticals Co., Ltd., priority 2022, published 2026)
